This is an account of results in patent EP0164904B1, “Method of determining an infusion rate profile and infusion device” (THE UNIVERSITY OF MELBOURNE, priority 1984, dated 1985).

Data set [1] is described as follows: Plasma Drug Efflux profile derived from actual infusion data (iterative infusion method, scaled to Lean Body Mass). The following applies: Figure 9, after three iterations. The class given is in vivo, human subjects.
From the text: Central to the approach used in this method is the development of a new concept in pharmacokinetics, the Plasma Drug Efflux. This concept simply stated is that at any instant, if the plasma concentration of a drug is neither rising nor falling, the rate of delivery of the drug to the circulation ie. the infusion rate, must equate to the rate at which the drug is being lost from the circulation. It is - unimportant whether the loss is by distribution, metabolism or excretion.
Then if drug is administered by some arbitrary infusion scheme Q(t), the plasma concentration is C(t) and the rate of drug loss from the plasma may be called the Plasma Drug Efflux, Ep(t).
If the plasma drug concentration is constant so that the amount of drug is not changing then the instantaneous rate of drug influx to the plasma (the infusion rate), and the instantaneous concentration in the plasma may be used as an estimate of drug efflux from the plasma, is an estimate of i.e.: [drawing 1]
The efflux estimate may then be plotted against time, and will essentially describe a dosing-rate/concentration profile as a function of time which will result in a plateau concentration for all time. […]
Data set [2] can be described thus: Infusion generated from the Efflux profile; arterial plasma concentration followed over the infusion period. The data set is classed as in vivo, patient. The source says:
Describing first the preferred method of defining a generalised infusion rate profile as applied to anaesthetic drugs, the method comprises the steps of: • (a) first determining the lean body mass (LBM) of a group of subjects. A convenient way of doing this in human subjects is to use the method described by Hallynck T.H. et al in "Should clearance be normalized to body surface of to lean body mass?" in British Journal of Clinical Pharmacology, p 523-526, Volume 11, (1981), who presented the following formulae:- Males: LBM = 1.10 x weight - 128 x (weight²/height²) Females: LBM = 1.07 x weight - 148 x (weight²/height²) • (b) Following administration of a suitable bolus dose of a desired drug to achieve unconsciousness, the drug is infused at an arbitrary but known rate throughout the infusion. […]

For data set [3] the following is noted: plasma concentration, cited from earlier work.

Regarding `C=CCC1(C(C)C#CCC)C(=O)N=C(O)N(C)C1=O` (centres unmarked) [methohexitone], the “shape of the Plasma Drug Efflux profile” value in data set [1] is reported as “bears little relationship to an exponential function, having two distinct humps”. The “arterial plasma drug concentrations” value in data set [2] (infusion by Efflux profile of Figure 9 in a typical patient (Figure 10), over a period of five hours) was “constant and desired arterial plasma drug concentrations”. Besides, the “departures from the desired level” value in data set [2] (infusion by Efflux profile, many patients) is reported as “no material departures from the desired level in any patient”. Moreover, the “concentration likely to result in wakening of the patient” value in data set [3] (fall to below) was “below 3 mg/l”. For the same compound, the “concentration at which severe depression of the heart and breathing may occur” value in data set [3] is 10000 ng/mL.
